Experimental data published in ChEMBL document CHEMBL1140769, “Characterization of distamycin A binding to damaged DNA” (Bioorg Med Chem, 2008).
pKd: −log10 of the molar value.

How the values were obtained:
[1] = Binding affinity to AP.A-20 DNA duplex by CD titration
[2] = Binding affinity to T.A-20 DNA duplex by CD titration
[3] = Binding affinity to MG.C-20 DNA duplex by CD titration
[4] = Binding affinity to OG.A-20 DNA duplex by CD titration
[5] = Binding affinity to G.A-20 DNA duplex by CD titration

- pKd [1]: 5.70
- pKd [2]: 6.43
- pKd [3]: 5.12
- pKd [4]: 6.70
- pKd [5]: 5.43
Compound: Cn1cc(NC(=O)c2cc(NC(=O)c3cc(NC=O)cn3C)cn2C)cc1C(=O)NCCC(=N)N [STALLIMYCIN]
